From patent US11987542B2, “Co-crystal of sorafenib derivatives and process for preparation thereof” (EicOsis, LLC, priority 2018, dated 2024)

Assays:
Assay type in all cases: biochemical
Rat sEH = target: T1, Rat sEH (Rattus norvegicus, UniProt P80299); experiment: sEH inhibition, fluorescent assay
T1 sequence (P80299 1-554): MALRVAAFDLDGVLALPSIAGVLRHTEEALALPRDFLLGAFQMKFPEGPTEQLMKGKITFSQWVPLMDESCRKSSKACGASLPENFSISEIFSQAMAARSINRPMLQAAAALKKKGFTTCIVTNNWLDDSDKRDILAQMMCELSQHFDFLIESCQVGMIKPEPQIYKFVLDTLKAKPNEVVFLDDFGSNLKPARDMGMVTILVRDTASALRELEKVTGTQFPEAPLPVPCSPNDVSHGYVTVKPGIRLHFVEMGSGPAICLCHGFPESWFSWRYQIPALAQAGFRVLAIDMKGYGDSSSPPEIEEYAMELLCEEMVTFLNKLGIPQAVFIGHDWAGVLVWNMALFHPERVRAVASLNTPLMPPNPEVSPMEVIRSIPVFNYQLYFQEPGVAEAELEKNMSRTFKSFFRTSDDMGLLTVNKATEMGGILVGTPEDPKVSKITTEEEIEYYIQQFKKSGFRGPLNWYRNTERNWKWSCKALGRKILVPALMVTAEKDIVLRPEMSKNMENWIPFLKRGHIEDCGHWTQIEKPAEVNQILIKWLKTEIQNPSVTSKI

Pig sEH = target: T2, Pig sEH (Sus scrofa, UniProt Q6Q2C2); experiment: sEH inhibition, radioactive assay and liver cytosolic preparation
T2 construct: from tissue
T2 sequence (Q6Q2C2 1-555): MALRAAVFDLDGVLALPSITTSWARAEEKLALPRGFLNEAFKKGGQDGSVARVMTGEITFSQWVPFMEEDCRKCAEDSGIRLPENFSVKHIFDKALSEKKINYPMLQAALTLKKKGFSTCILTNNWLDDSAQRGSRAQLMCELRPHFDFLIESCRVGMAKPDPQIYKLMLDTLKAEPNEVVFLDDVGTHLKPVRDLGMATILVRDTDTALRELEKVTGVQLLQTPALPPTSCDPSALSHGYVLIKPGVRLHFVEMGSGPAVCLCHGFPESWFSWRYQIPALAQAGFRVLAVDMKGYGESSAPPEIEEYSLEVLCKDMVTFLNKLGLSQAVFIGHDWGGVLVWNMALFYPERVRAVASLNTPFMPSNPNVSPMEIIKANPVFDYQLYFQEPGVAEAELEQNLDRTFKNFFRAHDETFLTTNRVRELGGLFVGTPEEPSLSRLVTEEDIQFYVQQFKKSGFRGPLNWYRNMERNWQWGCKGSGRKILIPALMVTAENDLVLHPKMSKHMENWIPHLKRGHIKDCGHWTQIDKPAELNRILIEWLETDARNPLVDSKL

Sheep sEH = target: T3, Sheep sEH (Ovis aries, UniProt A0ACI6PZ20); experiment: as above
T3 sequence (A0ACI6PZ20 1-549): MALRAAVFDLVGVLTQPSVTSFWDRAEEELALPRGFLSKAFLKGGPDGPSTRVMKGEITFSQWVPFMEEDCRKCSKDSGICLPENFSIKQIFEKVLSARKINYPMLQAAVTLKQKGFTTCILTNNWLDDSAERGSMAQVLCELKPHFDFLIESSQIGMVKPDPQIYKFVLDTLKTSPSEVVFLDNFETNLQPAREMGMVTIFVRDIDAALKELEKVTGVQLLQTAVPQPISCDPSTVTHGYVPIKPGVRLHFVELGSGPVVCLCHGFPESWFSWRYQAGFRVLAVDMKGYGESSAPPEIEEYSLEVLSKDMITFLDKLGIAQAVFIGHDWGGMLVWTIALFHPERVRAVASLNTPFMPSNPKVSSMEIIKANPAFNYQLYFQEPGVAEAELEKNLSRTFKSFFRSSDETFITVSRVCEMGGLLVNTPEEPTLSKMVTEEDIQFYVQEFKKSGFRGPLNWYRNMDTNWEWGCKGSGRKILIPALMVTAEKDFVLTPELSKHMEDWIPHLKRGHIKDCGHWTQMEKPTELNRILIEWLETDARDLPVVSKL

## O=C(Nc1ccc(OC(F)(F)F)cc1)N[C@H]1CC[C@H](Oc2ccc(C(=O)O)cc2)CC1 [EC1728, trans-4-{4-[3-(4-trifluoromethoxy-phenyl)-ureido]-cyclohexyloxy}-benzoic acid]
Rat sEH
  IC50: 16 nM
Pig sEH
  IC50: 29 nM
Sheep sEH
  IC50: 6 nM
